Measurements as given in article PMC7753147, “High-throughput determination of protein affinities using unmodified peptide libraries in nanomolar scale” (iScience, 2020).

Legend:
[1] = system: FL-geph; test: µSPOT peptide microarray binding assay with full-length geph
[2] = system: native geph; test: µSPOT peptide microarray binding assay with native geph from mouse brain lysate
[3] = system: gephE; test: µSPOT peptide microarray binding assay with recombinant gephE
[4] = µSPOT peptide microarray, GlyRβ full positional scan, intensity normalised to wild-type sequence DLRSNDFSIVGSLPR (=1)
[5] = µSPOT peptide microarray, GlyRβ full positional scan, native geph from mouse brain lysate, intensity normalised to wild-type sequence DLRSNDFSIVGSLPR (=1)
[6] = µSPOT peptide microarray, GlyRβ full positional scan, recombinant gephE, intensity normalised to wild-type sequence DLRSNDFSIVGSLPR (=1)
[7] = µSPOT full positional scan of GlyRβ 15-mer DLRSNDFSIVGSLPR, intensity normalised to wild-type sequence (= 1)
[8] = µSPOT full positional scan of GlyRβ 15-mer DLRSNDFSIVGSLPR, native geph, intensity normalised to wild-type sequence (= 1)

Sequence	Fl-geph Binding Intensity [norm.] [1, 4] [norm.]	Native geph Binding Intensity [norm.] [2, 5] [norm.]	gephE Binding Intensity [norm.] [3, 6] [norm.]	Fl-geph Binding Intensity [norm.] [1, 7] [norm.]	Native geph Binding Intensity [norm.] [2, 8] [norm.]	gephE Binding Intensity [norm.] [3, 7] [norm.]
CLRSNDFSIVGSLPR [GlyRβ_Full_Positional_Scan_017]	0.88	0.99	1.12	–	–	–
DLRSNDSSIVGSLPR [GlyRβ_Full_Positional_Scan_135, GlyR β 414-428 variant F420S]	0.46	0.35	0.51	–	–	–
DLRSNDPSIVGSLPR [GlyRβ_Full_Positional_Scan_125, GlyR β 414-428 variant F420P]	0.65	0.34	0.54	–	–	–
DLCSNDFSIVGSLPR [GlyRβ_Full_Positional_Scan_057]	1.14	1.41	0.88	–	–	–
DLSSNDFSIVGSLPR [GlyRβ_Full_Positional_Scan_055]	1.4	1.35	0.87	–	–	–
DLRCNDFSIVGSLPR [GlyRβ_Full_Positional_Scan_077]	0.65	0.77	0.99	–	–	–
DLRSWDFSIVGSLPR [GlyRβ_Full_Positional_Scan_088]	0.66	0.47	0.86	–	–	–
DLRNNDFSIVGSLPR [GlyRβ_Full_Positional_Scan_079]	0.99	0.88	0.92	–	–	–
DLRYNDFSIVGSLPR [GlyRβ_Full_Positional_Scan_069]	0.83	0.93	0.96	–	–	–
DLRSNHFSIVGSLPR [GlyRβ_Full_Positional_Scan_113]	0.85	0.48	0.86	–	–	–
ALRSNDFSIVGSLPR [GlyRβ_Full_Positional_Scan_001]	1.11	0.77	1.06	–	–	–
YLRSNDFSIVGSLPR [GlyRβ_Full_Positional_Scan_009]	1	0.74	1.05	–	–	–
DLRSNDHSIVGSLPR [GlyRβ_Full_Positional_Scan_133, GlyR β 414-428 variant F420H]	0.61	0.44	0.57	–	–	–
DLRSYDFSIVGSLPR [GlyRβ_Full_Positional_Scan_089]	0.76	0.68	0.89	–	–	–
DLQSNDFSIVGSLPR [GlyRβ_Full_Positional_Scan_060]	1.06	1.3	0.91	–	–	–
DCRSNDFSIVGSLPR [GlyRβ_Full_Positional_Scan_037]	0.9	1.22	0.95	–	–	–

Now from value to sequence:

Fl-geph Binding Intensity [norm.] [1, 4] [norm.]	Native geph Binding Intensity [norm.] [2, 5] [norm.]	gephE Binding Intensity [norm.] [3, 6] [norm.]	Fl-geph Binding Intensity [norm.] [1, 7] [norm.]	Native geph Binding Intensity [norm.] [2, 8] [norm.]	gephE Binding Intensity [norm.] [3, 7] [norm.]	Sequence
0.87	0.27	0.52	–	–	–	DLRSNDFSSVGSLPR [GlyRβ_Full_Positional_Scan_175, GlyR β 414-428 variant I422S]
–	–	–	1.01	0.44	0.62	DLRSNDFSIVGLLPR [GlyRβ_Full_Positional_Scan_224]
–	–	–	1.36	1.37	0.98	DLRSNDFSIVGSLPN [GlyRβ_Full_Positional_Scan_299]
–	–	–	0.78	0.28	0.71	DLRSNDFSIVGSLFR [GlyRβ_Full_Positional_Scan_267]
0.52	0.29	0.48	–	–	–	DLRSNDFSIVISLPR [GlyRβ_Full_Positional_Scan_203, GlyR β 414-428 variant G424I]
0.84	0.48	0.69	–	–	–	DLRSNDFSYVGSLPR [GlyRβ_Full_Positional_Scan_169, GlyR β 414-428 variant I422Y]
–	–	–	0.99	0.86	0.75	DLRSNDFSIVGGLPR [GlyRβ_Full_Positional_Scan_222]
–	–	–	0.77	0.44	0.6	DLRSNDFSIVGSLMR [GlyRβ_Full_Positional_Scan_278]
0.42	0.17	0.43	–	–	–	DLRSNDFSIVVSLPR [GlyRβ_Full_Positional_Scan_206, GlyR β 414-428 variant G424V]
–	–	–	1.05	0.92	0.96	DLRSNDFSIVGSLPH [GlyRβ_Full_Positional_Scan_293]
0.7	0.43	0.64	–	–	–	DLRSNDFSIFGSLPR [GlyRβ_Full_Positional_Scan_187, GlyR β 414-428 variant V423F]
–	–	–	0.91	0.45	0.62	DLRSNDFSIVGSLVR [GlyRβ_Full_Positional_Scan_266]
0.67	0.2	0.59	–	–	–	DLRSNDFSWVGSLPR [GlyRβ_Full_Positional_Scan_168, GlyR β 414-428 variant I422W]
0.76	0.27	0.51	–	–	–	DLRSNDFSFVGSLPR [GlyRβ_Full_Positional_Scan_167, GlyR β 414-428 variant I422F]
–	–	–	0.82	0.4	0.58	DLRSNDFSIVGSLDR [GlyRβ_Full_Positional_Scan_270]
0.51	0.31	0.41	–	–	–	DLRSNDFSIPGSLPR [GlyRβ_Full_Positional_Scan_185, GlyR β 414-428 variant V423P]
–	–	–	1.24	0.71	0.92	DLRSNDFSIVGSLPK [GlyRβ_Full_Positional_Scan_294]
